Common to all, as to experiment: growth of human tumour cells (NCI), 48 h
Test [1] has as its system MDA-MB-231 breast.
Test [2] relates to CAKI-1 renal.
For test [3], the system named is HCC-2998 colon.
Test [4] relates to NCI/ADR-RES ovarian.
The test system of test [5] is T-47D breast.
The subject of test [6] is SR leukemia.
In test [7] the test system is PC-3 prostate.
In test [8] the test system is SK-MEL-2 melanoma.

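96-well plates; 48 h exposure; 5 concentrations. Endpoints by linear interpolation between flanking doses. Not reached: highest tested concentration assigned. The concentration for 50% growth inhibition is given as GI50. TGI is the concentration that stops growth completely.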

Consider `C[C@@H](O)[C@H](NC(=O)N[C@@H](CC(N)=O)c1nc([C@@H](N)CO)no1)C(=O)O`, for which the GI50 in test [1], in test [2], in test [3], in test [4], in test [5] and in test [6] was over 100 µM in each case. In addition, the GI50 in test [7] and in test [8] was over 100 µM in each case. Also, the TGI in test [1], in test [2], in test [3], in test [4], in test [5] and in test [6] was over 100 µM in each case. The TGI in test [7] and in test [8] was over 100 µM throughout.
In the case of `NC[C@H]1Nc2ccccc2[C@@H](O)C1O` (stereo partly drawn), the TGI in test [1], in test [2], in test [3], in test [4], in test [5] and in test [6] was over 100 µM in each case. For the same compound, the TGI in test [7] and in test [8] was over 100 µM in each case.
For `O=C1CC(=O)N(C(=O)c2nn(-c3ccc(Cl)cc3)cc2O)N1`, the GI50 is 1.84 µM in test [1]; 0.639 µM in test [2]; 4.17 µM in test [3]; 1.16 µM in test [4]; 0.431 µM in test [5]; 0.26 µM in test [6]. Further, the GI50 in test [7] is 0.36 µM; in test [8] it was over 100 µM. Also, the TGI in test [1] was over 100 µM; in test [2], 12.7 µM; in test [3] it was over 100 µM; in test [4], over 100 µM; in test [5], over 71.6 µM; in test [6], 5.04 µM. Moreover, the TGI in test [7] and in test [8] was over 100 µM in each case.
`O=c1cc(N2CCN(CCCCCOc3cc(O)c4c(=O)cc(-c5ccccc5)oc4c3)CC2)c2ccccc2o1`: the GI50 in test [1] is 13.1 µM; in test [2], over 100 µM; in test [3], 48.3 µM; in test [4], 74.2 µM; in test [5] it was over 100 µM; in test [6], 42.9 µM. Moreover, the GI50 in test [7] is 43.1 µM; in test [8], over 100 µM. Also, the TGI in test [1], in test [2], in test [3], in test [4], in test [5] and in test [6] was over 100 µM each time. The TGI in test [7] and in test [8] was over 100 µM throughout.
As for `COc1cc(N2CCC(N3CCN(C)CC3)CC2)ccc1Nc1ncnc(Nc2ccccc2S(=O)(=O)C(C)C)n1`, the GI50 in test [1] was 3.31 µM; in test [2] it was 3.32 µM; in test [3] it was 13.2 µM; in test [4], 7.26 µM; in test [5] it was 5.18 µM; in test [6] it was 0.104 µM. Also, the GI50 in test [7] was 5.33 µM; in test [8] it was 5.83 µM. Also, the TGI in test [1] is 18.5 µM; in test [2], 13 µM; in test [3] it was 36.9 µM; in test [4] it was 42.6 µM; in test [5] it was 39.9 µM; in test [6] it was 18.7 µM. Moreover, the TGI in test [7] was over 51.4 µM; in test [8], 16.3 µM.
With `NC1CCC(Nc2nc(NCc3ccc(-c4ccccc4O)nc3)c3ncn(C4CCCC4)c3n2)CC1` (stereo not drawn), the GI50 in test [1] was under 0.0105 µM; in test [2] it was 0.38 µM; in test [3] it was 0.0229 µM; in test [4], 0.135 µM; in test [5], 0.0252 µM; in test [6], 0.0354 µM. Also, the GI50 is 0.0275 µM in test [7] and 0.0227 µM in test [8]. Also, the TGI in test [1] was determined as 0.895 µM; in test [2], 2.2 µM; in test [3], 0.515 µM; in test [4], 2.18 µM; in test [5] it was 0.0791 µM; in test [6] it was 1.35 µM. Further, the TGI in test [7] came to 1.02 µM; in test [8] it was 0.0583 µM.
With `N#Cc1ccc2c(c1)C(=O)c1c-2n(CCCCl)c(=O)c2cc([N+](=O)[O-])ccc12`, the GI50 was 77.5 µM in test [1]; 18 µM in test [2]; 12 µM in test [3]; 6 µM in test [4]; 2.65 µM in test [5]; 0.178 µM in test [6]. Further, the results for the GI50 in test [7] and in test [8] were 19.1 µM and 16.9 µM, respectively. Further, the TGI is over 100 µM in test [1]; over 100 µM in test [2]; over 100 µM in test [3]; over 100 µM in test [4]; over 100 µM in test [5]; 1.7 µM in test [6]. Moreover, the TGI in test [7] was over 100 µM; in test [8], 54.1 µM.
In the case of `C=C1C(=O)O[C@H]2[C@H]1CC/C(COC(=O)C(=O)c1cn(C)c3ccc(Cl)cc13)=C\CC[C@@]1(C)O[C@@H]21`, the GI50 in test [1] was 1.03 µM; in test [2], 1.71 µM; in test [3], 1.86 µM; in test [4], 1.45 µM; in test [5], 1.46 µM; in test [6], 0.3 µM. Further, the GI50 is 1.41 µM in test [7] and 1.39 µM in test [8]. Further, the TGI in test [1] was found to be 4.3 µM; in test [2], 4.54 µM; in test [3] it was 3.52 µM; in test [4], 4.7 µM; in test [5], 3.27 µM; in test [6], 50 µM. Besides, the TGI in test [7] is 3.32 µM; in test [8], 3.61 µM.
As for `COc1cc2c(cc1OC)-c1ccc3cc4c(cc3c1N(CCCn1ccnc1)C2)OCO4`, the GI50 was 3.34 µM in test [1]; 10.9 µM in test [3]; over 100 µM in test [4]; 0.358 µM in test [5]; 0.579 µM in test [6]; 4.18 µM in test [7]. In addition, the GI50 in test [8] was 3.02 µM. Besides, the TGI in test [1] is 18.8 µM; in test [3], 24.4 µM; in test [4] it was over 100 µM; in test [5] it was 4.27 µM; in test [6], over 100 µM; in test [7], 36.7 µM. Further, the TGI in test [8] was 8.73 µM.
As for `Cc1ccc(NC2=C(Cl)C(=O)N(Cc3ccc(Cl)cc3)C2=O)cc1O`, the GI50 in test [1] was 9.75 µM; in test [2] it was 2.79 µM; in test [4], 9.24 µM; in test [5] it was 10.7 µM; in test [6], 71.4 µM; in test [7] it was 5.5 µM. The GI50 in test [8] was 10.7 µM. The TGI was 32.4 µM in test [1]; 18 µM in test [2]; 37.8 µM in test [4]; 42.6 µM in test [5]; over 100 µM in test [6]; 35.6 µM in test [7]. The TGI in test [8] is 26.7 µM.

The values above are taken from PubChem BioAssay (NCI).
